According to US20210070748A1, “INHIBITORS OF BRUTONS TYROSINE KINASE” (Pharmacyclics LLC, priority 2015, published 2021):

What was measured:
Assay type in all cases: biochemical
JAK3 = target: T1, JAK3 (Homo sapiens, UniProt P52333); experiment: Inhibition of a panel of kinases, in vitro HotSpot kinase assay: JAK3; conditions: D-compounds panel data; 1 μM ATP; read-out: IC50 JAK3
T1 sequence (P52333 1-1124): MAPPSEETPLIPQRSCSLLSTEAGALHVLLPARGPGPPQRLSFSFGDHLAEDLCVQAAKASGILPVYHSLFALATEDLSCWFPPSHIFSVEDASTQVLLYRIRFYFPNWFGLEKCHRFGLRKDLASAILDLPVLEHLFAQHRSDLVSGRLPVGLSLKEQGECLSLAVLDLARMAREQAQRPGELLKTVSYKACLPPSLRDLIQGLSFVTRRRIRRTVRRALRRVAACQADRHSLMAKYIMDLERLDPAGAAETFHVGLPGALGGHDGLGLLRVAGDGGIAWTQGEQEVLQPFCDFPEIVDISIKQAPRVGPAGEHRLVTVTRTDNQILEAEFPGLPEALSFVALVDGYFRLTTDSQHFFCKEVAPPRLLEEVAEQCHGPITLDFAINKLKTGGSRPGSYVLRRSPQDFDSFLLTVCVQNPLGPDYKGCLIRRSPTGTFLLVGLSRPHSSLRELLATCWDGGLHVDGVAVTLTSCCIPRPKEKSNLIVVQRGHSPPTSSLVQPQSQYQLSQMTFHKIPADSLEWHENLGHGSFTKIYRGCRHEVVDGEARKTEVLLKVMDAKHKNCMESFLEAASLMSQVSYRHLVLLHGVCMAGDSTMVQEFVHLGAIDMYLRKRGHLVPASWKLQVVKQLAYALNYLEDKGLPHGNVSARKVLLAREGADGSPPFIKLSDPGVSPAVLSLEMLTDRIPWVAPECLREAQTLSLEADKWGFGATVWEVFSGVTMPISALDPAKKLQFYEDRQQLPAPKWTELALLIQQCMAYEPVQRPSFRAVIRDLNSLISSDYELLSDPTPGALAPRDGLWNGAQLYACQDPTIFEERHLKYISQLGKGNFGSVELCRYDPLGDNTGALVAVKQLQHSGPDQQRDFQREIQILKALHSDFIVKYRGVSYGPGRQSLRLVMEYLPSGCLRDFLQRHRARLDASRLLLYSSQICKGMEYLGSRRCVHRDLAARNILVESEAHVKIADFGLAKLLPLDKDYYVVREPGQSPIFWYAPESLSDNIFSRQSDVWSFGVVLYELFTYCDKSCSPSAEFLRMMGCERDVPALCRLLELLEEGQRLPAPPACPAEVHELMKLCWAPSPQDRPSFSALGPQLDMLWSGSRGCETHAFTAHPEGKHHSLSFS

SRC = SRC (Homo sapiens, UniProt P12931); experiment: Inhibition of a panel of kinases, in vitro HotSpot kinase assay: SRC; conditions: D-compounds panel data; 1 μM ATP
Method: The degree of inhibition of a panel of kinases is determined using the in vitro HotSpot kinase assay (purified enzymes, ^33P-ATP, an appropriate substrate and 1 μM ATP).

BTK-WT = target: T2, BTK-WT (Homo sapiens, UniProt Q06187); experiment: Btk in vitro inhibitory activity (one of Method A TR-FRET, Method B electrophoretic mobility shift, Method C radiometric filter binding); conditions: D-compounds panel data; read-out: IC50 BTK-WT
T2 construct: purified from insect cells as a full-length construct containing an N-terminal 6X-His tag; His6 (N); made in house; host or cells: insect cells (baculovirus Sf21 in Method B)

LCK = LCK (Homo sapiens, UniProt P06239); experiment: Inhibition of a panel of kinases, in vitro HotSpot kinase assay: LCK; conditions: D-compounds panel data; 1 μM ATP; read-out: IC50 LCK
LCK, sequence (P06239 whole entry): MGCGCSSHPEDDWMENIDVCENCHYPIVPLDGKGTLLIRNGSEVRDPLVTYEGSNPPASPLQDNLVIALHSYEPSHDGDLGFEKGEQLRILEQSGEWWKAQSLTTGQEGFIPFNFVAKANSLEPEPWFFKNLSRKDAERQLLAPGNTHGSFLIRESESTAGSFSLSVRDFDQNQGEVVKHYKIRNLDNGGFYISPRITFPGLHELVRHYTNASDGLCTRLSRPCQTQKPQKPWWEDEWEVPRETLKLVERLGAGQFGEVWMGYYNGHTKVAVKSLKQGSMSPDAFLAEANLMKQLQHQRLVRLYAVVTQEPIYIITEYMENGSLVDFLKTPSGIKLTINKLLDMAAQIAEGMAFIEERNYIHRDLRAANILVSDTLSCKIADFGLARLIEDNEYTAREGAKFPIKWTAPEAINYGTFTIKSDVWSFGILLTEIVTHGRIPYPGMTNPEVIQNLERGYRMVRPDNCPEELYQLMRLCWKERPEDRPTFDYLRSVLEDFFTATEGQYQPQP

SRC, sequence (P12931 whole entry): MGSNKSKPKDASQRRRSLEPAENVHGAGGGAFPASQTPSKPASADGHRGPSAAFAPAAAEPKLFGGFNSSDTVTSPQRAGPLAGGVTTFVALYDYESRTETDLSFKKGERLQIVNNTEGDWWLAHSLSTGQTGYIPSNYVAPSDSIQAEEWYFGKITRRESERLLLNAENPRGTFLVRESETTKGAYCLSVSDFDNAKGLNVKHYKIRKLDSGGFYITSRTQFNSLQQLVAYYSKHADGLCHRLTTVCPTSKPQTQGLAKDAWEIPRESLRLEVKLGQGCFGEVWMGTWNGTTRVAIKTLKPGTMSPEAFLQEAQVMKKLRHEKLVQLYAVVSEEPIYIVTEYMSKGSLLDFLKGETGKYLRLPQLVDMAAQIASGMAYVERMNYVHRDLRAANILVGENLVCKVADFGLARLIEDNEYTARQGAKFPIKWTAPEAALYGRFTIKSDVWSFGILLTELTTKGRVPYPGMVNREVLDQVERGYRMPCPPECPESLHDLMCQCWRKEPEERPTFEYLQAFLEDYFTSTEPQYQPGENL
T2 sequence (Q06187 whole entry): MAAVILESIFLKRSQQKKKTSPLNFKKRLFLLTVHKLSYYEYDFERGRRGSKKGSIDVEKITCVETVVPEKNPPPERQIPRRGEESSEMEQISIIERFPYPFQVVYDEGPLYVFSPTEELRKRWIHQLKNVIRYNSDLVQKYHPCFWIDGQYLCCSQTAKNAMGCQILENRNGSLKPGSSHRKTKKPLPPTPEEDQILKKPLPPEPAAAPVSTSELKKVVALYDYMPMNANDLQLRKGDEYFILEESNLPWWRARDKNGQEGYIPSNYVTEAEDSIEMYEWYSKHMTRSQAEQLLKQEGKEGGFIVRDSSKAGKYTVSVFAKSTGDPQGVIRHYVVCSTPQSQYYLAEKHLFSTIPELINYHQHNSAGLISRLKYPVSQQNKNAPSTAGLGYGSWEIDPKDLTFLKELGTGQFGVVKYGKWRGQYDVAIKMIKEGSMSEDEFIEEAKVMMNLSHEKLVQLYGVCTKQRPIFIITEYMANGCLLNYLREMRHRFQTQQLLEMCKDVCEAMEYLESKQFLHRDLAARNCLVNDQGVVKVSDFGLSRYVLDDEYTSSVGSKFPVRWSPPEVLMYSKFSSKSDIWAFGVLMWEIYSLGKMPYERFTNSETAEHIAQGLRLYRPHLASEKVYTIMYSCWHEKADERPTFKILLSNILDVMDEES

| SMILES | IC50 (JAK3) | IC50 (SRC) | IC50 (BTK-WT) | IC50 (LCK) |
| --- | --- | --- | --- | --- |
| C[C@@H]1[C@H](NC(=O)c2ccc(C(C)(C)O)cc2F)CCCN1c1nnc(C(N)=O)c(Nc2cnn(C)c2)n1 [Example D-308, 3-[(2R,3R)-3-[2-fluoro-4-(2-hydroxypropan-2-yl)benzamido]-2-methylpiperidin-1-yl]-5-[(1-methyl-1H-pyrazol-4-yl)amino]-1,2,4-triazine-6-carboxamide] | 1000 to 10000 nM | 10 to 100 nM | ≤ 10 nM | 10 to 100 nM |
| C[C@@H]1[C@H](NC(=O)c2ccc(C3CC3)nc2)CCCN1c1cnc(C(N)=O)c(Nc2ccc(OC3CCOCC3)cc2)n1 [Example D-309, 5-[(2R,3R)-3-(6-cyclopropylpyridine-3-amido)-2-methylpiperidin-1-yl]-3-{[4-(oxan-4-yloxy)phenyl]amino}pyrazine-2-carboxamide] | 100 to 1000 nM | 10 to 100 nM | ≤ 10 nM | 100 to 1000 nM |
| C[C@@H]1[C@H](NC(=O)c2ccc(C3CC3)cc2)CCCN1c1cnc(C(N)=O)c(Nc2cc(C3CCOCC3)ns2)n1 [Example D-310, 5-[(2R,3R)-3-(4-cyclopropylbenzamido)-2-methylpiperidin-1-yl]-3-{[3-(oxan-4-yl)-1,2-thiazol-5-yl]amino}pyrazine-2-carboxamide] | 100 to 1000 nM | 10 to 100 nM | ≤ 10 nM | 10 to 100 nM |
| C[C@@H]1[C@H](NC(=O)c2ccc(C3CC3)cc2)CCCN1c1cnc(C(N)=O)c(Nc2cc(C3CCN(C4CCCC4)CC3)ns2)n1 [Example D-311, 3-{[3-(1-cyclopentylpiperidin-4-yl)-1,2-thiazol-5-yl]amino}-5-[(2R,3R)-3-(4-cyclopropylbenzamido)-2-methylpiperidin-1-yl]pyrazine-2-carboxamide] | 100 to 1000 nM | 10 to 100 nM | ≤ 10 nM | 10 to 100 nM |
| C[C@@H]1[C@H](NC(=O)c2ccc(C3CC3)cc2)CCCN1c1cnc(C(N)=O)c(Nc2cc(C3CCN(C)CC3)ns2)n1 [Example D-312, 5-[(2R,3R)-3-(4-cyclopropylbenzamido)-2-methylpiperidin-1-yl]-3-{[3-(1-methylpiperidin-4-yl)-1,2-thiazol-5-yl]amino}pyrazine-2-carboxamide] | 100 to 1000 nM | ≤ 10 nM | ≤ 10 nM | < 10 nM |
| C[C@@H]1[C@H](NC(=O)c2ccc(C3CC3)cc2F)CCCN1c1cnc(C(N)=O)c(Nc2ccc(N3CCNCC3)c(F)c2)n1 [Example D-313, 5-[(2R,3R)-3-(4-cyclopropyl-2-fluorobenzamido)-2-methylpiperidin-1-yl]-3-{[3-fluoro-4-(piperazin-1-yl)phenyl]amino}pyrazine-2-carboxamide] | 100 to 1000 nM | 10 to 100 nM | ≤ 10 nM | 10 to 100 nM |
| C[C@@H]1[C@H](NC(=O)N(C)C2CC2)CCCN1c1cnc(C(N)=O)c(Nc2cnn(C)c2)n1 [Example D-314, 5-[(2R,3R)-3-{[cyclopropyl(methyl)carbamoyl]amino}-2-methylpiperidin-1-yl]-3-[(1-methyl-1H-pyrazol-4-yl)amino]pyrazine-2-carboxamide] | 1000 to 10000 nM | 10 to 100 nM | ≤ 10 nM | 100 to 1000 nM |
| C[C@@H]1[C@H](NC(=O)c2ccc(C3CC3)cc2)CCCN1c1cnc(C(N)=O)c(Nc2ccc3c(c2)OC(F)(F)O3)n1 [Example D-315, 5-[(2R,3R)-3-(4-cyclopropylbenzamido)-2-methylpiperidin-1-yl]-3-[(2,2-difluoro-2H-1,3-benzodioxol-5-yl)amino]pyrazine-2-carboxamide] | > 10000 nM | > 10000 nM | 1000 to 10000 nM | > 10000 nM |
